Experimental data as given in patent EP3409761B1, “CULTURE MEDIUM COMPOSITION, AND METHOD FOR CULTURING CELL OR TISSUE USING SAID COMPOSITION” (Nissan Chemical Corporation, priority 2012, dated 2014).

What was measured:
Format in all cases: cell-based
[1] = test system: human lung cancer cell line A549; assay: Effect of Gefitinib on proliferation of A549 cell stimulated with human HB-EGF; conditions: DAG 0.015%, day 6
Method: This aqueous solution was sterilized at 121°C for 20 min in an autoclave. […] Each plate was cultured by being stood still in a CO2 incubator (37°C, 5% CO2). […] To the culture medium on day 6 was added an ATP reagent (150 µL) (CellTiter-Glo (registered trade mark) Luminescent Cell Viability Assay, manufactured by Promega) to give a suspension, which was stood for about 10 min at room temperature, and the luminescence intensity (RLU value) was measured by FlexStation3 (manufactured by Molecular Devices), and the number of viable cells was measured by subtracting the luminescence value of the medium alone.

[2] = test system: human lung cancer cell line A549; assay: A549 cell proliferation test using Trametinib and MK-2206; conditions: day 4 of the static culture
Method: (§1) This aqueous solution was sterilized at 121°C for 20 min in an autoclave. […] Each plate was cultured by being stood still in a CO2 incubator (37°C, 5% CO2). […] The anticancer drugs used were Trametinib (manufactured by Santa Cruz, MEK inhibitor) and MK-2206 (manufactured by Santa Cruz, Akt inhibitor). […]

[3] = test system: human cervical cancer cell line HeLa; assay: Comparison with single layer culture method in cell proliferation test using anticancer drug; conditions: day 4
Method: This aqueous solution was sterilized at 121°C for 20 min in an autoclave. […] Each plate was cultured by being stood still in a CO2 incubator (37°C, 5% CO2). […] The anticancer drug used was Adriamycin (manufactured by WAKO), Paclitaxel (manufactured by WAKO) or Mitomycin C (manufactured by WAKO). To the culture medium on day 4 was added an ATP reagent (150 µL) (CellTiter-Glo (registered trade mark) Luminescent Cell Viability Assay, manufactured by Promega) to give a suspension, which was stood for about 10 min at room temperature, and the luminescence intensity (RLU value) was measured by FlexStation3 (manufactured by Molecular Devices), and the number of viable cells was measured by subtracting the luminescence value of the medium alone. For WST-8 measurement, a WST-8 solution (manufactured by DOJINDO Laboratories, 15 µL) was added, the mixture was incubated at 37°C for 100 min, the absorbance at 450 nm was measured by an absorbance spectrometer (manufactured by Molecular Devices, SPECTRA MAX 190), and the number of viable cells was measured by subtracting the absorbance of the medium alone.

[4] = test system: human cervical cancer cell line HeLa; assay: HeLa cell proliferation test using Trametinib and MK-2206; conditions: day 4 of the static culture
Method: as §1

[5] = test system: human cervical cancer cell line HeLa; assay: Cell proliferation test using various anticancer drugs; conditions: DAG 0.030% medium; for cell density: 5 days later
Method: This aqueous solution was sterilized at 121°C for 20 min in an autoclave. […] The anticancer drug used was Adriamycin (manufactured by WAKO), Paclitaxel (manufactured by WAKO) or Mitomycin C (manufactured by WAKO).
Successively, this plate was cultured by being stood still in a CO2 incubator (37°C, 5% CO2) for 7 days. After culturing for 3, 5, 7 days, to the culture medium was added a WST-8 solution (manufactured by DOJINDO Laboratories, 20 µL), and the mixture was incubated at 37°C for 100 min. The absorbance at 450 nm was measured by an absorbance spectrometer (manufactured by Molecular Devices, SPECTRA MAX 190), and the number of viable cells was measured by subtracting the absorbance of the medium alone. The culture medium containing the cells after 5 days of culture was stirred with a pipette and the obtained stirred solution (20 µL) was mixed with Trypan Blue stain 0.4% (manufactured by Invitrogen, 20 µL) and the cell density was measured under a microscope.

[6] = drug 0.001 µM, deacylated gellan gum addition group (0.015%)
[7] = drug 0.001 µM, single layer culture group
[8] = drug 0.003 µM, deacylated gellan gum addition group (0.015%)
[9] = drug 0.003 µM, single layer culture group
[10] = drug 0.01 µM, deacylated gellan gum addition group (0.015%)
[11] = drug 0.01 µM, single layer culture group
[12] = drug 0.03 µM, deacylated gellan gum addition group (0.015%)
[13] = drug 0.03 µM, single layer culture group
[14] = drug 0.3 µM, deacylated gellan gum addition group (0.015%)
[15] = drug 0.3 µM, single layer culture group
[16] = drug 3 µM, deacylated gellan gum addition group (0.015%)
[17] = drug 3 µM, single layer culture group
[18] = drug 30 µM, deacylated gellan gum addition group (0.015%)
[19] = drug 30 µM, single layer culture group
[20] = drug 0.1 µM, deacylated gellan gum addition group (0.015%)
[21] = drug 0.1 µM, single layer culture group
[22] = drug 1 µM, deacylated gellan gum addition group (0.015%)
[23] = drug 1 µM, single layer culture group

## COc1cc2ncnc(Nc3ccc(F)c(Cl)c3)c2cc1OCCCN1CCOCC1 [Gefitinib]
[1]; 0.1 µM, HB-EGF 100 ng/ml
  % Control value of the RLU value (ATP measurement): 91 % Control
[1]; 0.1 µM, HB-EGF no addition
  % Control value of the RLU value (ATP measurement): 89 % Control
[1]; 0.3 µM, HB-EGF 100 ng/ml
  % Control value of the RLU value (ATP measurement): 74 % Control
[1]; 0.3 µM, HB-EGF no addition
  % Control value of the RLU value (ATP measurement): 84 % Control
[1]; 1 µM, HB-EGF 100 ng/ml
  % Control value of the RLU value (ATP measurement): 59 % Control
[1]; 1 µM, HB-EGF no addition
  % Control value of the RLU value (ATP measurement): 77 % Control
[1]; 3 µM, HB-EGF 100 ng/ml
  % Control value of the RLU value (ATP measurement): 53 % Control
[1]; 3 µM, HB-EGF no addition
  % Control value of the RLU value (ATP measurement): 69 % Control

## CC(=O)O[C@H]1C(=O)[C@@]2(C)[C@H]([C@H](OC(=O)c3ccccc3)[C@]3(O)C[C@H](OC(=O)[C@H](O)[C@@H](NC(=O)c4ccccc4)c4ccccc4)C(C)=C1C3(C)C)[C@]1(OC(C)=O)CO[C@@H]1C[C@@H]2O [Paclitaxel]
[2]; [6]
  % Control value of the RLU value (ATP measurement): 93 % Control
[2]; [7]
  % Control value of the RLU value (ATP measurement): 81 % Control
[2]; [8]
  % Control value of the RLU value (ATP measurement): 52 % Control
[2]; [9]
  % Control value of the RLU value (ATP measurement): 31 % Control
[2]; [10]
  % Control value of the RLU value (ATP measurement): 32 % Control
[2]; [11]
  % Control value of the RLU value (ATP measurement): 16 % Control
[3]; [6]
  % Control value of the RLU value (ATP measurement): 107 % Control
  % Control value of the absorbance at 450 nm (WST-8 measurement): 125 % Control
[3]; [7]
  % Control value of the RLU value (ATP measurement): 95 % Control
  % Control value of the absorbance at 450 nm (WST-8 measurement): 99 % Control
[3]; [8]
  % Control value of the RLU value (ATP measurement): 34 % Control
  % Control value of the absorbance at 450 nm (WST-8 measurement): 33 % Control
[3]; [9]
  % Control value of the RLU value (ATP measurement): 36 % Control
  % Control value of the absorbance at 450 nm (WST-8 measurement): 32 % Control
[3]; [10]
  % Control value of the RLU value (ATP measurement): 18 % Control
  % Control value of the absorbance at 450 nm (WST-8 measurement): 5 % Control
[3]; [11]
  % Control value of the RLU value (ATP measurement): 10 % Control
  % Control value of the absorbance at 450 nm (WST-8 measurement): 10 % Control
[3]; [12]
  % Control value of the RLU value (ATP measurement): 17 % Control
  % Control value of the absorbance at 450 nm (WST-8 measurement): 3 % Control
[3]; [13]
  % Control value of the RLU value (ATP measurement): 4 % Control
  % Control value of the absorbance at 450 nm (WST-8 measurement): 5 % Control
[4]; [6]
  % Control value of the RLU value (ATP measurement): 104 % Control
[4]; [7]
  % Control value of the RLU value (ATP measurement): 89 % Control
[4]; [8]
  % Control value of the RLU value (ATP measurement): 46 % Control
[4]; [9]
  % Control value of the RLU value (ATP measurement): 15 % Control
[4]; [10]
  % Control value of the RLU value (ATP measurement): 5 % Control
[4]; [11]
  % Control value of the RLU value (ATP measurement): 2 % Control
[5]; drug 0.001 µM
  cell density: 5.3 10^4 cells/mL
[5]; drug 0.001 µM, day 3
  cell number (absorbance at 450 nm, WST-8): 0.276
[5]; drug 0.001 µM, day 5
  cell number (absorbance at 450 nm, WST-8): 0.223
[5]; drug 0.001 µM, day 7
  cell number (absorbance at 450 nm, WST-8): 0.222
[5]; drug 0.01 µM
  cell density: 1.6 10^4 cells/mL
[5]; drug 0.01 µM, day 3
  cell number (absorbance at 450 nm, WST-8): 0.019
[5]; drug 0.01 µM, day 5
  cell number (absorbance at 450 nm, WST-8): < 0
[5]; drug 0.01 µM, day 7
  cell number (absorbance at 450 nm, WST-8): < 0
[5]; drug 0.1 µM
  cell density: 0.9 10^4 cells/mL
[5]; drug 0.1 µM, day 3
  cell number (absorbance at 450 nm, WST-8): < 0
[5]; drug 0.1 µM, day 5
  cell number (absorbance at 450 nm, WST-8): < 0
[5]; drug 0.1 µM, day 7
  cell number (absorbance at 450 nm, WST-8): < 0
[5]; drug 1 µM
  cell density: 0.2 10^4 cells/mL
[5]; drug 1 µM, day 3
  cell number (absorbance at 450 nm, WST-8): < 0
[5]; drug 1 µM, day 5
  cell number (absorbance at 450 nm, WST-8): < 0
[5]; drug 1 µM, day 7
  cell number (absorbance at 450 nm, WST-8): < 0

## NC1(c2ccc(-c3nc4ccn5c(=O)[nH]nc5c4cc3-c3ccccc3)cc2)CCC1 [MK-2206]
[2]; [12]
  % Control value of the RLU value (ATP measurement): 84 % Control
[2]; [13]
  % Control value of the RLU value (ATP measurement): 93 % Control
[2]; [14]
  % Control value of the RLU value (ATP measurement): 45 % Control
[2]; [15]
  % Control value of the RLU value (ATP measurement): 79 % Control
[2]; [16]
  % Control value of the RLU value (ATP measurement): 21 % Control
[2]; [17]
  % Control value of the RLU value (ATP measurement): 53 % Control
[2]; [18]
  % Control value of the RLU value (ATP measurement): 0 % Control
[2]; [19]
  % Control value of the RLU value (ATP measurement): 0 % Control
[4]; [12]
  % Control value of the RLU value (ATP measurement): 57 % Control
[4]; [13]
  % Control value of the RLU value (ATP measurement): 93 % Control
[4]; [14]
  % Control value of the RLU value (ATP measurement): 21 % Control
[4]; [15]
  % Control value of the RLU value (ATP measurement): 84 % Control
[4]; [16]
  % Control value of the RLU value (ATP measurement): 21 % Control
[4]; [17]
  % Control value of the RLU value (ATP measurement): 69 % Control
[4]; [18]
  % Control value of the RLU value (ATP measurement): 0 % Control
[4]; [19]
  % Control value of the RLU value (ATP measurement): 0 % Control

## CC(=O)Nc1cccc(-n2c(=O)n(C3CC3)c(=O)c3c(Nc4ccc(I)cc4F)n(C)c(=O)c(C)c32)c1 [Trametinib]
[2]; [6]
  % Control value of the RLU value (ATP measurement): 72 % Control
[2]; [7]
  % Control value of the RLU value (ATP measurement): 71 % Control
[2]; [10]
  % Control value of the RLU value (ATP measurement): 35 % Control
[2]; [11]
  % Control value of the RLU value (ATP measurement): 37 % Control
[2]; [20]
  % Control value of the RLU value (ATP measurement): 2 % Control
[2]; [21]
  % Control value of the RLU value (ATP measurement): 5 % Control
[2]; [22]
  % Control value of the RLU value (ATP measurement): 0 % Control
[2]; [23]
  % Control value of the RLU value (ATP measurement): 1 % Control
[4]; [6]
  % Control value of the RLU value (ATP measurement): 73 % Control
[4]; [7]
  % Control value of the RLU value (ATP measurement): 102 % Control
[4]; [10]
  % Control value of the RLU value (ATP measurement): 12 % Control
[4]; [11]
  % Control value of the RLU value (ATP measurement): 93 % Control
[4]; [20]
  % Control value of the RLU value (ATP measurement): 1 % Control
[4]; [21]
  % Control value of the RLU value (ATP measurement): 20 % Control
[4]; [22]
  % Control value of the RLU value (ATP measurement): 1 % Control
[4]; [23]
  % Control value of the RLU value (ATP measurement): 3 % Control
